Data from US10563263B2, “Genetic polymorphisms associated with statin response and cardiovascular diseases, methods of detection and uses thereof” (CELERA CORPORATION, priority 2010, dated 2020).

Test system: CVD (CHD or stroke)
Assay: CARE: SNP by pravastatin treatment interaction, logistic regression (synergy index), CVD endpoint
Format: in vivo, human
Conditions: for OR (SNP x pravastatin interaction) / OR (synergy index, SNP x pravastatin treatment interaction): CARE; for OR (synergy index), CARE, Prava vs Placebo: CVD endpoint
Text: CARE was a secondary prevention trial and WOSCOPS was a primary prevention trial.
The CHD endpoint was defined in the analyses herein of CARE as a composite endpoint of fatal CHD, definite non-fatal MI, or revascularization, and was defined in the analyses herein of WOSCOPS as a composite endpoint of death from CHD, nonfatal MI, or revascularization. In both the CARE and WOSCOPS analyses herein, the CVD endpoint was defined as a composite endpoint of CHD or stroke. […] Revascularization, which can include percutaneous transluminal coronary angioplasty (PTCA), stent placement, and coronary artery bypass graft (CABG), are medical interventions that indicate the presence of CHD.
Cohort and case-only study designs were used to identify SNPs associated with response to statin treatment.
For each SNP, a logistic regression model having treatment status as the dependent variable and SNP as the independent predictor variable was performed, with terms for age, sex and race included in the model as covariates. The anti-log of the regression coefficient corresponding to the SNP is an estimate of the synergy index (SI) (Davis et al., “Imputing gene-treatment interactions when the genotype distribution is unknown using case-only and putative placebo analyses-a new method for the Genetics of Hypertension Associated Treatment (GenHAT) study”, Statistics in Medicine 23: (2004), pages 2413-2427). The SI is a ratio of odds ratios: for example in the CARE and WOSCOPS studies, the SI represents the factor by which the odds-ratio of statin treatment, compared with placebo, among major homozygous individuals is multiplied by in order to obtain the odds-ratio of treatment vs. placebo among heterozygous individuals; and multiplied by a second time to obtain the odds-ratio of treatment vs. placebo in minor homozygous individuals. […] In a randomized clinical trial, genotype and treatment are independent by design.

For `CC[C@H](C)C(=O)O[C@H]1C[C@H](O)C=C2C=C[C@H](C)[C@H](CC[C@@H](O)C[C@@H](O)CC(=O)O)[C@H]21` [Pravastatin, pravastatin], the “OR (SNP x pravastatin interaction)” value (rs2132242 allele A, ADD model, Imputed) was 0.7317, the “OR (SNP x pravastatin interaction)” value (rs2132242 allele A, DOM model, Imputed) was 0.6043 and the “OR (SNP x pravastatin interaction)” value (rs2158958 allele A, DOM model, Imputed) was 0.6617. For the same compound, the “OR (SNP x pravastatin interaction)” value (rs2158961 allele G, DOM model, Imputed) was 0.6544, the “OR (SNP x pravastatin interaction)” value (rs2163046 allele A, DOM model, Imputed) was 1.474 and the “OR (SNP x pravastatin interaction)” value (rs2180286 allele G, DOM model, Imputed) was 0.6211. The “OR (SNP x pravastatin interaction)” value (rs2180684 allele A, DOM model, Imputed) was 1.684, the “OR (SNP x pravastatin interaction)” value (rs2188079 allele C, ADD model, Imputed) was 1.333 and the “OR (SNP x pravastatin interaction)” value (rs2190598 allele T, DOM model, Imputed) was 0.6617. For the same compound, the “OR (SNP x pravastatin interaction)” value (rs2190600 allele A, DOM model, Imputed) was 0.6716, the “OR (SNP x pravastatin interaction)” value (rs2224184 allele T, DOM model, Genotyped) was 0.6357 and the “OR (SNP x pravastatin interaction)” value (rs2247066 allele A, DOM model, Imputed) was 0.6151. For the same compound, the “OR (SNP x pravastatin interaction)” value (rs2248236 allele C, ADD model, Imputed) was 0.6377, the “OR (SNP x pravastatin interaction)” value (rs2248236 allele C, DOM model, Imputed) was 0.6049 and the “OR (SNP x pravastatin interaction)” value (rs2265733 allele C, ADD model, Imputed) was 0.6269. For the same compound, the “OR (SNP x pravastatin interaction)” value (rs2265733 allele C, DOM model, Imputed) was 0.5989, the “OR (SNP x pravastatin interaction)” value (rs2270584 allele A, ADD model, Imputed) was 0.7437 and the “OR (SNP x pravastatin interaction)” value (rs2270584 allele A, DOM model, Imputed) was 0.5859. For the same compound, the “OR (SNP x pravastatin interaction)” value (rs2270586 allele A, ADD model, Imputed) was 0.7444, the “OR (SNP x pravastatin interaction)” value (rs2270586 allele A, DOM model, Imputed) was 0.5879 and the “OR (SNP x pravastatin interaction)” value (rs2317057 allele T, ADD model, Imputed) was 0.7125. The “OR (SNP x pravastatin interaction)” value (rs2322100 allele T, REC model, Genotyped) was 1.768, the “OR (SNP x pravastatin interaction)” value (rs2322101 allele A, REC model, Imputed) was 1.764 and the “OR (SNP x pravastatin interaction)” value (rs2327929 allele G, REC model, Imputed) was 1.996. For the same compound, the “OR (SNP x pravastatin interaction)” value (rs2332844 allele A, ADD model, Imputed) was 1.802, the “OR (SNP x pravastatin interaction)” value (rs2332844 allele A, REC model, Imputed) was 1.849 and the “OR (SNP x pravastatin interaction)” value (rs2349170 allele G, DOM model, Imputed) was 1.638. The “OR (SNP x pravastatin interaction)” value (rs2356722 allele G, DOM model, Imputed) was 0.5863, the “OR (SNP x pravastatin interaction)” value (rs2364956 allele T, ADD model, Imputed) was 1.439 and the “OR (SNP x pravastatin interaction)” value (rs2373793 allele G, ADD model, Imputed) was 1.379. The “OR (SNP x pravastatin interaction)” value (rs2373793 allele G, DOM model, Imputed) was 1.446, the “OR (SNP x pravastatin interaction)” value (rs2383903 allele G, DOM model, Imputed) was 0.6249 and the “OR (SNP x pravastatin interaction)” value (rs2387945 allele G, DOM model, Imputed) was 1.587. For the same compound, the “OR (SNP x pravastatin interaction)” value (rs2389863 allele A, DOM model, Imputed) was 0.6722, the “OR (SNP x pravastatin interaction)” value (rs2389866 allele C, DOM model, Imputed) was 0.6634 and the “OR (SNP x pravastatin interaction)” value (rs2389869 allele C, DOM model, Imputed) was 0.6634. The “OR (SNP x pravastatin interaction)” value (rs2389870 allele C, DOM model, Genotyped) was 0.6413, the “OR (synergy index, SNP x pravastatin treatment interaction)” value (rs16938626 allele G, model DOM, Imputed) was 0.612 and the “OR (synergy index, SNP x pravastatin treatment interaction)” value (rs16964300 allele G, model ADD, Imputed) was 0.6771. The “OR (synergy index, SNP x pravastatin treatment interaction)” value (rs16964300 allele G, model DOM, Imputed) was 0.7073, the “OR (synergy index, SNP x pravastatin treatment interaction)” value (rs16986282 allele G, model DOM, Imputed) was 0.3124 and the “OR (synergy index, SNP x pravastatin treatment interaction)” value (rs17007620 allele G, model ADD, Imputed) was 1.421. For the same compound, the “OR (synergy index, SNP x pravastatin treatment interaction)” value (rs17007620 allele G, model DOM, Imputed) was 1.572, the “OR (synergy index, SNP x pravastatin treatment interaction)” value (rs17014326 allele G, model DOM, Imputed) was 0.5837 and the “OR (synergy index, SNP x pravastatin treatment interaction)” value (rs17047957 allele C, model DOM, Imputed) was 1.47. The “OR (synergy index, SNP x pravastatin treatment interaction)” value (rs17073341 allele A, model ADD, Imputed) was 2.568, the “OR (synergy index, SNP x pravastatin treatment interaction)” value (rs17073341 allele A, model DOM, Imputed) was 2.569 and the “OR (synergy index, SNP x pravastatin treatment interaction)” value (rs17138702 allele G, model ADD, Imputed) was 0.5527. The “OR (synergy index, SNP x pravastatin treatment interaction)” value (rs17189710 allele T, model ADD, Imputed) was 1.359, the “OR (synergy index, SNP x pravastatin treatment interaction)” value (rs17189710 allele T, model REC, Imputed) was 1.896 and the “OR (synergy index, SNP x pravastatin treatment interaction)” value (rs17310176 allele T, model ADD, Imputed) was 0.6381. For the same compound, the “OR (synergy index, SNP x pravastatin treatment interaction)” value (rs17310176 allele T, model DOM, Imputed) was 0.5794, the “OR (synergy index, SNP x pravastatin treatment interaction)” value (rs17358860 allele A, model DOM, Imputed) was 0.6291 and the “OR (synergy index, SNP x pravastatin treatment interaction)” value (rs17370541 allele T, model REC, Imputed) was 2.075. The “OR (synergy index, SNP x pravastatin treatment interaction)” value (rs17530747 allele T, model DOM, Imputed) was 0.5794, the “OR (synergy index, SNP x pravastatin treatment interaction)” value (rs17649114 allele C, model DOM, Imputed) was 1.543 and the “OR (synergy index, SNP x pravastatin treatment interaction)” value (rs17766172 allele A, model REC, Imputed) was 0.3869. The “OR (synergy index), CARE, Prava vs Placebo” value (“OR (synergy index), CARE” for short) (SNP rs304597 (A1 A, A2 G), rec model, cohort) was 1.95, the “OR (synergy index), CARE” value (SNP rs304601 (A1 A, A2 G), rec model, Caseonly) was 2.28 and the “OR (synergy index), CARE” value (SNP rs988146 (A1 G, A2 A), add model, Caseonly) was 0.66. For the same compound, the “OR (synergy index), CARE” value (SNP rs1336400 (A1 A, A2 G), dom model, cohort) was 1.68, the “OR (synergy index), CARE” value (SNP rs1559557 (A1 G, A2 A), add model, Caseonly) was 1.34 and the “OR (synergy index), CARE” value (SNP rs1877527 (A1 G, A2 A), add model, Caseonly) was 0.75. For the same compound, the “OR (synergy index), CARE” value (SNP rs2132241 (A1 A, A2 G), add model, Caseonly) was 0.74, the “OR (synergy index), CARE” value (SNP rs2270588 (A1 G, A2 A), add model, Caseonly) was 0.72 and the “OR (synergy index), CARE” value (SNP rs3844207 (A1 G, A2 C), add model, cohort) was 0.73. For the same compound, the “OR (synergy index), CARE” value (SNP rs7132840 (A1 T, A2 G), add model, cohort) was 0.75, the “OR (synergy index), CARE” value (SNP rs9325191 (A1 A, A2 C), add model, Caseonly) was 0.74 and the “OR (synergy index), CARE” value (SNP rs9346951 (A1 A, A2 G), add model, Caseonly) was 1.56. For the same compound, the “OR (synergy index), CARE” value (SNP rs10787944 (A1 G, A2 A), dom model, Caseonly) was 1.63, the “OR (synergy index), CARE” value (SNP rs10945874 (A1 T, A2 C), add model, cohort) was 1.72 and the “OR (synergy index), CARE” value (SNP rs11178579 (A1 T, A2 G), add model, cohort) was 0.76. The “OR (synergy index), CARE” value (SNP rs13103899 (A1 G, A2 A), dom model, cohort) was 0.70, the “OR (synergy index), CARE” value (SNP rs13107334 (A1 G, A2 T), add model, cohort) was 0.69 and the “OR (synergy index), CARE” value (SNP rs13121569 (A1 G, A2 A), dom model, Caseonly) was 0.66. For the same compound, the “OR (synergy index), CARE” value (SNP rs17048681 (A1 G, A2 T), add model, cohort) was 1.26.
